1 compound from US20020156032A1, “Inhibition of DNA methyltransferase” (priority 1994, published 2002) can be followed below.

In assay [1] the test system is Y1 cells. The assay can be described thus: Viability by trypan blue staining under serum deprivation. The conditions noted are these: 0-10 μM for 72 h, then 1% horse serum five days without drug. The assay is classed as cell-based. An excerpt:
Factors present in the serum are essential for the survival of many nontumorigenic cells. […] For example, the oncogene bc1-2 is not a stimulator of cell proliferation but rather causes inhibition of apoptosis. […] It was reasoned that as factors in the serum are known to act as survival factors for cells, an apoptotic program could be activated only when these factors are remove. To test whether pZαM transfectants undergo programmed cell death under serum deprived condition, the effects of serum starvation on these transfectants was studied. pZαM transfectants and control Yl pZEM transfectants (3×10^5 per well) were plated in low serum medium (1% horse serum) in six well plates, harvested every 24 hours and tested for viability by trypan blue staining (FIG. 7B).
1×10^5 Y1 cells were plated in growth medium. Twenty-four hours after plating, the medium was replaced with fresh medium containing various concentrations (0-10 μM) of 5 azaCdR (Sigma). The medium was removed and replaced with fresh medium containing 5 azaCdR every 12 h for a period of 72 h. Following 5 azaCdR treatment the cells were plated onto a six well dish in growth medium (100, 300, 500 cells per well) for cologinecity determinations, in soft agar for determining anchorage independent growth (3×10^3 cells per well) and in low serum (1% horse serum) for five days to determine viability under serum deprived conditions. […]

Assay [2] deals with Y1 cells. The assay can be described thus: Anchorage independent growth in soft agar. It is filed as cell-based. The settings on record: 0-10 μM for 72 h, then soft agar without drug. The protocol: Yl cells were maintained as monolayers in F-10 medium which was supplemented with 7.25% heat inactivated horse serum and 2.5% heat inactivated fetal calf serum (Immunocorp, Montreal). All other media and reagents for cell culture were obtained from GIBCO-BRL. Yl cells (1×10^6) were plated on a 150 mm dish (Nunc) 15 hours before transfection. The pZαM expression vector encoding the 5′ of the murine DNA MeTase cDNA (10 ug) was cointroduced into Yl cells with 1 ug of pUCSVneo as a selectable marker by DNA mediated gene transfer using the calcium phosphate protocol (Ausubel et al., 1988, In Current Protocols in Molecular Biology. Wiley and Sons, New York). Selection was initiated 48 hours after transfection by adding 0.25 mg/ml G418 (GIBCO-BRL) to the medium. G418 resistant cells were cloned in selective medium. […] Growth was scored as colonies containing >10 cells, 21 days after plating.
To determine whether the expression of antisense to the DNA MeTase results in reversal of the tumorigenic potential the ability of the transfectants to grow in an anchorage independent fashion, which is considered an indicator of tumorigenicity, was also determined. […] Growth on soft agar was quantified by visual examination and presented graphically in FIG. 4C. […]

The target in another assay is T1, DNA MeTase (Mus musculus, UniProt P13864).
T1 construct: endogenous in cells; host or cells: Y1 cells (parental, pZEM control transfectants and pZαM antisense transfectants)
As to the kind of experiment: Nearest neighbour analysis of methylated cytosines in CpG of total genomic DNA. The assay is classed as cell-based, murine. The conditions noted are these: Y1 cells, 0-10 μM for 72 h. On the procedure: To determine whether expression of antisense RNA to the DNA MeTase gene leads to a general reduction in the level of methylation of the genome, we resorted to “nearest neighbour” analysis using [α-32P]-dGTP as previously was performed. This assay enables the determination of the percentage of methylated cytosines residing in the dinucleotide sequence CpG (Razin et al., 1985, IN Biochemistry and Biology of DNA methylation, p. 239, Razin et al., (Ed), Allan R. Liss, Inc. N.Y.). […] Equal amounts of radioactivity were loaded on TLC phosphocellulose plates (Merck) and the 3′ mononucleotides were separated by chromatography in one dimension (iso-butyric acid: H2O:NH4OH in the ratio 66:33:1). The chromatograms were exposed to XAR™ film (Eastman-Kodak) and the spots corresponding to cytosine and 5-methylcytosine were scraped and counted in a β-scintillation counter.
Transfectants and control DNAs were nicked with DNAaseI, nick translated with a single nucleotide [α-32P]-dGTP using DNA polymerase I and the labelled DNA was digested to 3′ mononucleotide phosphates with micrococal nuclease which cleaves DNA 3′ to the introduced α-32p. The [α-32P] labelled 5′ neighbours of dGMP were separated by chromatography on a TLC plate, the resulting spots for dCMP and dC^metMp were scraped and counted by liquid scintillation. […]

T1 sequence (P13864 whole entry): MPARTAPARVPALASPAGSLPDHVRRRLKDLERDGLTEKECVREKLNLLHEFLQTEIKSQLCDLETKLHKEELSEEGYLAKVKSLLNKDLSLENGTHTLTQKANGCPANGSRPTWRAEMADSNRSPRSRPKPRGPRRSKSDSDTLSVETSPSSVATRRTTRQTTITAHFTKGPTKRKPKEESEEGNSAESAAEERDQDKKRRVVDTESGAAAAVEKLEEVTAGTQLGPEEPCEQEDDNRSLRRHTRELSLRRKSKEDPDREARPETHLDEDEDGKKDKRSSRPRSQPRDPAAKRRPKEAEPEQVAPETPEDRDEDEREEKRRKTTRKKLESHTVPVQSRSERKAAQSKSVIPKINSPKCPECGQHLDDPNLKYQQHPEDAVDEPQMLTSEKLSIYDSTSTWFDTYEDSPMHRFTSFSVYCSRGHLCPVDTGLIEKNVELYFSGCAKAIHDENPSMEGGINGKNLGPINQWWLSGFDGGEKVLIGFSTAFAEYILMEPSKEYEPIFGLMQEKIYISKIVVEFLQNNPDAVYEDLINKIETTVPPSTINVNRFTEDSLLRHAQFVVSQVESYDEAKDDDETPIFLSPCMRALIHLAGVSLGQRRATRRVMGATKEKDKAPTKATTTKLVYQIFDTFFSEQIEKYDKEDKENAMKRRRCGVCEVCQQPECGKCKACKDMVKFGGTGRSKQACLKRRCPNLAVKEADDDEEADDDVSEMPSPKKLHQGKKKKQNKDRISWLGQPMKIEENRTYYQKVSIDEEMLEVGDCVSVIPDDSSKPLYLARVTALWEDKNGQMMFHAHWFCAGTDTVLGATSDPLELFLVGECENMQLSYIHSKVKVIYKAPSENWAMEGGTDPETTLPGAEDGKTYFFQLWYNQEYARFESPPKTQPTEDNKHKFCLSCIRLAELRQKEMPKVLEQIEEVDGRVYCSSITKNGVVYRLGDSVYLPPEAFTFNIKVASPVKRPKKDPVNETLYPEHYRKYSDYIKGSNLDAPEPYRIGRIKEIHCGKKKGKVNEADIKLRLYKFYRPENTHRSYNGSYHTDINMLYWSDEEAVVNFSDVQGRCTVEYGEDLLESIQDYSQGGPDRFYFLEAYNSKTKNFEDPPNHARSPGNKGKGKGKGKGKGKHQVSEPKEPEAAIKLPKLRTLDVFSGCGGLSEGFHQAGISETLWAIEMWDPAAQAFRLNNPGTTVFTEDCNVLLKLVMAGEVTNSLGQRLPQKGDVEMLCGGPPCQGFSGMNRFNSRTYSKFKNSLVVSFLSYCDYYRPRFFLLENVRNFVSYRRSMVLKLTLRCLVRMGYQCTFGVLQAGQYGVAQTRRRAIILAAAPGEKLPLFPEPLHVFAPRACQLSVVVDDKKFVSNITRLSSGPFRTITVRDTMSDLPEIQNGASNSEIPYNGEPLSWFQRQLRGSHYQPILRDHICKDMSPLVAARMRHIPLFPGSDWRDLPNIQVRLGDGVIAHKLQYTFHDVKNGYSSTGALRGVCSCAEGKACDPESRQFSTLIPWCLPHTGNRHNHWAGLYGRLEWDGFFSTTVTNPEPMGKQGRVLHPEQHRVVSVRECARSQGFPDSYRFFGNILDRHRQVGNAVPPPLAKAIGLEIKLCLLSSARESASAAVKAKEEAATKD

Consider `Nc1ncn([C@H]2C[C@H](O)[C@@H](CO)O2)c(=O)n1` [5 azaCdR], for which the “viability of serum-starved cells” value in the assay on Y1 cells [1] is “decrease the viability of serum-starved cells”. The “growth on soft agar” value with Y1 cells [2] is “drastically inhibit the growth of Y1 cells on soft agar”. Also, on DNA MeTase, the “level of non-methylated cytosine in CpG” value is given as “increase the level of non-methylated cytosine”.
